pIC50: −log10 of the molar value.
Experiments:
rats = assay: Penile erection test using rats; type: in vivo, rat; details: oral single dose 10 mg/kg in 0.5% methyl cellulose, observed for 2 hours
[1] = target: T1, Phosphodiesterase-5 enzyme (PDE 5) (Homo sapiens, UniProt O76074); assay: Test for phosphodiesterase-5 (PDE 5) activity; type: biochemical; details: PDE 5 fraction from human corpus cavernosal tissues
T1 construct: separated by HPLC (Mono Q anion exchange column) with concentration gradient of 0-500 mM NaCl to elute PDE isozymes; from tissue; host or cells: human corpus cavernosal tissue

[2] = Acute oral toxicity test in rats; details: SD, rat, in vivo, 1 g/kg; rats, oral single dose; read-out: lethal dose (LD50) of oral administration

SMILES	PEI (penile erection index) (rats)	genital grooming (number of genital groomings) (rats)	pIC50 [1]	LD50 [2] [mg/kg]
CCCc1nn(C)c2c(=O)[nH]c(-c3cc(S(=O)(=O)Nc4ccc(C(C)C)cc4)ccc3OCC)nc12 [Example 31, 5-[2-ethoxy-5-(4-isopropylphenylamidosulfonyl)phenyl]-1-methyl-3-propyl-1,6-dihydro-7H-pyrazolo(4,3-d)pyrimidin-7-one]	300.0 ± 0	3.3 ± 0.6	7.51	> 1000
CCCc1nn(C)c2c(=O)[nH]c(-c3cc(S(=O)(=O)NC4CCCCC4)ccc3OCC)nc12 [Example 19, 5-[2-ethoxy-5-(cyclohexylamidosulfonyl)phenyl]-1-methyl-3-propyl-1,6-dihydro-7H-pyrazolo(4,3-d)pyrimidin-7-one]	233.3 ± 57.7	5.0 ± 0.0	8.30	> 1000
CCCc1nn(C)c2c(=O)[nH]c(-c3cc(S(=O)(=O)Nc4ccc(C(C)(C)C)cc4)ccc3OCC)nc12 [Example 28, 5-[2-ethoxy-5-(4-t-butylphenylamidosulfonyl)phenyl]-1-methyl-3-propyl-1,6-dihydro-7H-pyrazolo(4,3-d)pyrimidin-7-one]	300.0 ± 100.0	3.0 ± 1.0	7.33	> 1000
CCCc1nn(CC)c2c(=O)[nH]c(-c3cc(S(=O)(=O)Nc4ccncc4)ccc3OCC)nc12 [Example 36, 5-[2-ethoxy-5-(4-pyridylamidosulfonyl)phenyl]-1-ethyl-3-propyl-1,6-dihydro-7H-pyrazolo(4,3-d)pyrimidin-7-one]	200.0 ± 173.2	1.3 ± 0.6	8.51	> 1000
CCCc1nn(CC)c2c(=O)[nH]c(-c3cc(S(=O)(=O)Nc4cccnc4)ccc3OCC)nc12 [Example 40, 5-[2-ethoxy-5-(3-pyridylamidosulfonyl)phenyl]-1-ethyl-3-propyl-1,6-dihydro-7H-pyrazolo(4,3-d)pyrimidin-7-one]	177.8 ± 203.7	1.7 ± 1.5	8.06	> 1000
CCCc1nn(CC)c2c(=O)[nH]c(-c3cc(S(=O)(=O)NCc4ccccc4)ccc3OCC)nc12 [Example 24, 5-[2-ethoxy-5-(benzylamidosulfonyl)phenyl]-1-ethyl-3-propyl-1,6-dihydro-7H-pyrazolo(4,3-d)pyrimidin-7-one]	233.3 ± 230.9	2.7 ± 2.9	7.07	> 1000
CCCc1nn(CC)c2c(=O)[nH]c(-c3cc(S(=O)(=O)NC4CC4)ccc3OCC)nc12 [Example 14, 5-[2-ethoxy-5-(cyclopropylamidosulfonyl)phenyl]-1-ethyl-3-propyl-1,6-dihydro-7H-pyrazolo(4,3-d)pyrimidin-7-one]	233.3 ± 57.7	3.0 ± 1.0	7.10	> 1000
CCCc1nn(C)c2c(=O)[nH]c(-c3cc(S(=O)(=O)NC(C)C)ccc3OCC)nc12 [Example 1, 5-[2-ethoxy-5-(isopropylamidosulfonyl)phenyl]-1-methyl-3-propyl-1,6-dihydro-7H-pyrazolo(4,3-d)pyrimidin-7-one]	366.7 ± 38.5	3.0 ± 1.0	8.06	> 1000
CCCc1nn(CC)c2c(=O)[nH]c(-c3cc(S(=O)(=O)Nc4ccc(C(C)(C)C)cc4)ccc3OCC)nc12 [Example 29, 5-[2-ethoxy-5-(4-t-butylphenylamidosulfonyl)phenyl]-1-ethyl-3-propyl-1,6-dihydro-7H-pyrazolo(4,3-d)pyrimidin-7-one]	233.3 ± 152.8	3.0 ± 2.0	7.30	> 1000
CCCc1nn(CC)c2c(=O)[nH]c(-c3cc(S(=O)(=O)NCC4CCN(C)C4)ccc3OCC)nc12 (stereo not shown) [Example 61]	25.0 ± 28.9	0.8 ± 0.5	7.03	–
CCCNS(=O)(=O)c1ccc(OCC)c(-c2nc3c(CCC)nn(C)c3c(=O)[nH]2)c1 [Example 7, 5-[2-ethoxy-5-(propylamidosulfonyl)phenyl]-1-methyl-3-propyl-1,6-dihydro-7H-pyrazolo(4,3-d)pyrimidin-7-one]	200.0 ± 0.0	6.7 ± 3.8	7.68	> 1000
CCCOc1ccc(S(=O)(=O)NCc2ccccc2)cc1-c1nc2c(CCC)nn(C)c2c(=O)[nH]1 [Example 23, 5-[2-propyloxy-5-(benzylamidosulfonyl)phenyl]-1-methyl-3-propyl-1,6-dihydro-7H-pyrazolo(4,3-d)pyrimidin-7-one]	266.7 ± 57.7	3.0 ± 1.0	7.90	> 1000
CCCc1nn(C)c2c(=O)[nH]c(-c3cc(S(=O)(=O)NC4CC4)ccc3OCC)nc12 [Example 13, 5-[2-ethoxy-5-(cyclopropylamidosulfonyl)phenyl]-1-methyl-3-propyl-1,6-dihydro-7H-pyrazolo(4,3-d)pyrimidin-7-one]	300.0 ± 100.0	4.3 ± 1.2	7.66	> 1000
CCCc1nn(CC)c2c(=O)[nH]c(-c3cc(S(=O)(=O)NC(C)C)ccc3OCC)nc12 [Example 5, 5-[2-ethoxy-5-(isopropylamidosulfonyl)phenyl]-1-ethyl-3-propyl-1,6-dihydro-7H-pyrazolo(4,3-d)pyrimidin-7-one]	266.7 ± 57.7	3.3 ± 1.2	7.71	> 1000
CCCNS(=O)(=O)c1ccc(OCC)c(-c2nc3c(CCC)nn(CC)c3c(=O)[nH]2)c1 [Example 8, 5-[2-ethoxy-5-(propylamidosulfonyl)phenyl]-1-ethyl-3-propyl-1,6-dihydro-7H-pyrazolo(4,3-d)pyrimidin-7-one]	200.0 ± 100.0	3.0 ± 1.0	7.60	> 1000
CCCc1nn(C)c2c(=O)[nH]c(-c3cc(S(=O)(=O)NC(C)CC)ccc3OCC)nc12 (stereo not shown) [Example 10, 5-[2-ethoxy-5-(2-butylamidosulfonyl)phenyl]-1-methyl-3-propyl-1,6-dihydro-7H-pyrazolo(4,3-d)pyrimidin-7-one]	466.7 ± 305.5	4.0 ± 1.7	8.42	> 1000
CCCc1nn(C)c2c(=O)[nH]c(-c3cc(S(=O)(=O)Nc4ccc(F)cc4)ccc3OCC)nc12 [Example 26, 5-[2-ethoxy-5-(4-fluorophenylamidosulfonyl)phenyl]-1-methyl-3-propyl-1,6-dihydro-7H-pyrazolo(4,3-d)pyrimidin-7-one]	133.3 ± 133.3	4.0 ± 1.7	7.13	> 1000
